Molecules are shown by their SMILES. Structures can show the parent of a compound that is named as a salt.

T2 sequence (Q9NYV4 whole entry, the tested form may be a part): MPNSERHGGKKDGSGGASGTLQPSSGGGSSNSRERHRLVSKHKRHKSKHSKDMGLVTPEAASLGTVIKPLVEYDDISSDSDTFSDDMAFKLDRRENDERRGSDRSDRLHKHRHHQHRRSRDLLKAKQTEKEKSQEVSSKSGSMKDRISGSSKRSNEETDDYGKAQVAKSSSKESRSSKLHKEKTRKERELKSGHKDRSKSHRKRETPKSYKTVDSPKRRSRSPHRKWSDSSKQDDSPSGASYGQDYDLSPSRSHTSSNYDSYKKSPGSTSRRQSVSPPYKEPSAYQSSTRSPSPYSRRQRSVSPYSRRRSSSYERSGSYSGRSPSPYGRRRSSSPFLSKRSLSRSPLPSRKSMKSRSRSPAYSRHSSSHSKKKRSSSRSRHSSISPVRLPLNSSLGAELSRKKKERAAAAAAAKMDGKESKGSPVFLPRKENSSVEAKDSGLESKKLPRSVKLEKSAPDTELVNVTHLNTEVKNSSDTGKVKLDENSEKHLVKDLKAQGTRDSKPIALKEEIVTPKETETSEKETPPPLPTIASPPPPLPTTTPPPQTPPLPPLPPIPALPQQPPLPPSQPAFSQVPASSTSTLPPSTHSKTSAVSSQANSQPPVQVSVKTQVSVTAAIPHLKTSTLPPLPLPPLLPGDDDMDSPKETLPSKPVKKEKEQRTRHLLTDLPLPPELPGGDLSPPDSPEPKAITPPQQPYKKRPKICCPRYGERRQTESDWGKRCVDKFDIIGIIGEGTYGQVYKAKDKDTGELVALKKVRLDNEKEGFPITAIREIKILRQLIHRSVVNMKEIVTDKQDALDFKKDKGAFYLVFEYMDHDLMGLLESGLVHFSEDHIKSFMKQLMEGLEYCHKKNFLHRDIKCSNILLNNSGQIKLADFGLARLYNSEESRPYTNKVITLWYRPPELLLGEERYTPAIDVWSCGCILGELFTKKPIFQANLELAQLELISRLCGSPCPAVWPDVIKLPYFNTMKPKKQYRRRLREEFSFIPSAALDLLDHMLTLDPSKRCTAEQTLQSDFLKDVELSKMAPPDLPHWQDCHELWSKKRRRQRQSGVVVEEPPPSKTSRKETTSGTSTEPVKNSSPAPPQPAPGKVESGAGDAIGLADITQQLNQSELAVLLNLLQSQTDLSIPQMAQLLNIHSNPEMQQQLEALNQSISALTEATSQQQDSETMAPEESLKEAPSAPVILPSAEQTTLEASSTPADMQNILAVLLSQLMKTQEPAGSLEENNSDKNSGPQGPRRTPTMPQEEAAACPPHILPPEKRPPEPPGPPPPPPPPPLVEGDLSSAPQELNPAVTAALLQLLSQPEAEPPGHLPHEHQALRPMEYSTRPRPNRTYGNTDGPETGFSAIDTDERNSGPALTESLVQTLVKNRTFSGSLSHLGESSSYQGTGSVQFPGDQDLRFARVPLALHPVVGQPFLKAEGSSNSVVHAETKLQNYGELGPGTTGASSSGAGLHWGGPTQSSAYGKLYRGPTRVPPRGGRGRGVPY
T2 sequence (O75909 whole entry partner, the tested form may be a part): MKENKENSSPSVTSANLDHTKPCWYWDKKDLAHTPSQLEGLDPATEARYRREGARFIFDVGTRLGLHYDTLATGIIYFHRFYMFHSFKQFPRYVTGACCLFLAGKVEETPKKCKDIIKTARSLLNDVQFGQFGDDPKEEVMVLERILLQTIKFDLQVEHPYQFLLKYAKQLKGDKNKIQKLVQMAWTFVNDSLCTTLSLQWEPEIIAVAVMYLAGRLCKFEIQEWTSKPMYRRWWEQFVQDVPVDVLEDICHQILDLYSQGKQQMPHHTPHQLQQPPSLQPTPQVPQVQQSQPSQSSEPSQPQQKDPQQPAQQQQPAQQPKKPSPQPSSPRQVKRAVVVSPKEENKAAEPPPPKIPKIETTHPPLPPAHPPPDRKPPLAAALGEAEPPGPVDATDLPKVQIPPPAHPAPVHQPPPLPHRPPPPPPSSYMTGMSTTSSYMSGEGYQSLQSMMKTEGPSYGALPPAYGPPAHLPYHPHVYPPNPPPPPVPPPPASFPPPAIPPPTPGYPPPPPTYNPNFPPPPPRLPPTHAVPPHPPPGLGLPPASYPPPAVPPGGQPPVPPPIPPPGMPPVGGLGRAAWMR

One assay deals with T1, CDK12 (Homo sapiens, UniProt Q9NYV4).
T1 construct: ProQinase (named as the party running the assay)
T1 sequence (Q9NYV4 whole entry): as the sequence (Q9NYV4 whole entry, the tested form may be a part) above
T1 sequence (O75909 whole entry partner): as the sequence (O75909 whole entry partner, the tested form may be a part) above
The assay is described as follows: Radiometric protein kinase assay (33PanQinase), assay condition 1, thiol-free conditions. The conditions noted are these: thiol-free conditions (1 mM TCEP), ATP at apparent Km. The class given is biochemical. On the procedure: Example 2 —Assay condition 1 (thiol-free conditions)
The IC50 profile of compounds was determined using protein kinase in a customized, thiol free assay. IC50 values were measured by testing 10 concentrations (1×10^−05 M to 3×10^−10 M) of each test compound in singlicate against each kinase of interest. Prior to testing, the 1×10^−03M stock solutions in column 2 of the master plates were subjected to a serial, semi-logarithmic dilution using 100% DMSO as a solvent. […] Column 1 and 7 were filled with 100% DMSO as controls. Subsequently, 2×10 microliter from each well of the serial diluted copy plates were aliquoted with a 96 channel pipettor into two identical sets of “compound dilution plates”. All plates were barcoded for automated identification and tracking purposes. IC50 values were measured by testing 10 concentrations (1×10^−05 M to 3×10^−10 M) of each compound in singlicate. All compounds were stored as powder until being solubilized in DMSO. Solubilized compounds were stored as 1×10^−02 M/100% DMSO stock solutions. Prior to the assay process, 90 microliters of H2O were added to each well of a set of compound dilution plates. To minimize potential precipitation, the H2O was added to each plate only a few minutes before the transfer of the compound solutions into the assay plates. Each plate was shaken thoroughly, resulting in compound dilution plates with a final of 10% DMSO. For each assay, 5 microliters of solution from each well of the compound dilution plates/10% DMSO were transferred into the assay plate. The final volume of the assay was 50 μl. All compounds were tested at 10 final assay concentrations in the range from 1×10^−05 M to 3×10^−10 M, in singlicate. The final DMSO concentration in the reaction cocktails was 1% in all cases. A radiometric protein kinase assay (33PanQinase® Activity Assay) was used for measuring the kinase activity of the protein kinase. All kinase assays were performed in 96-well FlashPlates™ from PerkinElmer (Boston, Mass., USA) in a 50 microliter reaction volume. The reaction cocktail was pipetted in four steps in the following order: 20 microliter of assay buffer (standard buffer) 5 microliter of ATP solution (in H2O) 5 microliter of test compound (in 10% DMSO) 20 microliter enzyme/subtrate mix. Each assay for the protein kinase contained 70 mM HEPES-NaOH pH 7.5, 3 mM MgCl2, 3 mM MnCl2, 3 microM Na-orthovanadate, 1 mM TCEP, 50 μg/ml PEG20000, ATP (corresponding to the apparent ATP-Km of the kinase, see Table A), [gamma-33P]-ATP (approx. 6×10×E5 cpm per well), with the protein kinase and relevant substrate being used in pre-determined amounts, depending on the kinase in question. For all experiments labeled as “Thiol-free”, all glutathione was exchanged from protein preparations so as to be removed from the assay and final buffer conditions contained no thiol- containing reagents. This was done so there would be no interference with the key cysteines in the proteins of interest.
For data analysis, the median value of the counts in column 1 (n=8) of each assay plate was defined as “low control”. This value reflects unspecific binding of radioactivity to the plate in the absence of a protein kinase but in the presence of the substrate. The median value of the counts in column 7 of each assay plate (n=8) was taken as the “high control”, i.e. full activity in the absence of any inhibitor. The difference between high and low control was taken as 100% activity. As part of the data evaluation the low control value from a particular plate was subtracted from the high control value as well as from all 80 “compound values” of the corresponding plate. The residual activity (in %) for each well of a particular plate was calculated by using the following formula:
Res. Activity (%)=100×[(cpm of compound−low control)/(high control−low control)] […]
On to `C=CC(=O)Nc1ccc2c(N3CC[C@@H](Nc4ncc(Br)cn4)C3)nncc2c1` [Example 50, (R)—N-(1-(3-((5-bromopyrimidin-2-yl)amino)pyrrolidin-1-yl)phthalazin-6-yl)acrylamide], for which the IC50 was at most 0.1 µM.

As for `C=CC(=O)Nc1ccc2c(N3CC[C@@H](Nc4ncc(Br)c(OC)n4)C3)ncnc2c1` [Example 5, (R)-N-(4-(3-((5-bromo-4-methoxypyrimidin-2-yl)amino)pyrrolidin-1-yl)quinazolin-7-yl)acrylamide], the IC50 is at most 0.1 µM. Same read-out and setting: the same measure for `C=CC(=O)Nc1ccc2c(N3CC[C@@H](Nc4ncc(C#N)cn4)C3)nc(N3CCOCC3)nc2c1` [Example 22, (R)-N-(4-(3-((5-cyanopyrimidin-2-yl)amino)pyrrolidin-1-yl)-2-morpholinoquinazolin-7-yl)acrylamide]: 0.1 to 1 µM.

For `C#Cc1cnc(N[C@@H]2CCN(c3nnc(N4CCC4)c4cc(NC(=O)C=C)ccc34)C2)nn1` [Example 53], the IC50 is at most 0.1 µM. On to `C=CC(=O)Nc1ccc2c(N3CC[C@@H](Nc4ncc(Cl)c(C(F)(F)F)n4)C3)ncnc2c1` [Example 9, (R)-N-(4-(3-((5-chloro-4-(trifluoromethyl)pyrimidin-2-yl)amino)pyrrolidin-1-yl)quinazolin-7-yl)acrylamide], for which the IC50 is at most 0.1 µM.

For `C=CC(=O)Nc1ccc2c(N3CC[C@@H](Nc4ncc(C#N)cn4)C3)nc(C)nc2c1` [Example 30, (R)—N-(4-(3-((5-cyanopyrimidin-2-yl)amino)pyrrolidin-1-yl)-2-methylquinazolin-7-yl)acrylamide], the concentration for half-maximal inhibition (IC50) is at most 0.1 µM. Consider `C=CC(=O)Nc1ccc2c(N3CC[C@@H](Nc4ncc(C#N)cn4)C3)nnc(N3CC(C#N)C3)c2c1` [Example 54, (R)—N-(4-(3-cyanoazetidin-1-yl)-1-(3-((5-cyanopyrimidin-2-yl)amino)pyrrolidin-1-yl)phthalazin-6-yl)acrylamide], for which the 50% inhibitory concentration (IC50) was at most 0.1 µM. Same read-out and setting: the same measure for `C=CC(=O)Nc1ccc2c(N3CC[C@@H](Nc4ncc(C(F)(F)F)c(N)n4)C3)ncnc2c1` [Example 6, (R)-N-(4-(3-((4-amino-5-(trifluoromethyl)pyrimidin-2-yl)amino)pyrrolidin-1-yl)quinazolin-7-yl)acrylamide]: at most 0.1 µM; for `C#Cc1cnc(N[C@@H]2CCN(c3nncc4cc(NC(=O)C=C)ccc34)C2)nc1` [Example 51, (R)—N-(1-(3-((5-ethynylpyrimidin-2-yl)amino)pyrrolidin-1-yl)phthalazin-6-yl)acrylamide formate]: at most 0.1 µM; for `C=CC(=O)Nc1ccc2c(N3CC[C@@H](Nc4ncc(C(F)(F)F)c(NC)n4)C3)ncnc2c1` [Example 15, (R)-N-(4-(3-((4-(methylamino)-5-(trifluoromethyl)pyrimidin-2-yl)amino)pyrrolidin-1-yl)quinazolin-7-yl)acrylamide]: at most 0.1 µM.

`C=CC(=O)Nc1ccc2c(N3CC[C@@H](Nc4ncc(Cl)c(NC)n4)C3)ncnc2c1` [Example 14, (R)-N-(4-(3-((5-chloro-4-(methylamino)pyrimidin-2-yl)amino)pyrrolidin-1-yl)quinazolin-7-yl)acrylamide]: the IC50 is at most 0.1 µM. On the same count and under the same terms, as for `C=CC(=O)Nc1ccc2c(N3CC[C@@H](Nc4ncc(Cl)cn4)C3)ncnc2c1` [Example 1, (R)-N-(4-(3-((5-chloropyrimidin-2-yl)amino)pyrrolidin-1-yl)quinazolin-7-yl)acrylamide], the figure is 0.1 to 1 µM; as for `C=CC(=O)Nc1ccc2c(N3CC[C@@H](Nc4ncc(Br)cn4)C3)nnc(N3CCC3)c2c1` [Example 52, (R)—N-(4-(azetidin-1-yl)-1-(3-((5-bromopyrimidin-2-yl)amino)pyrrolidin-1-yl)phthalazin-6-yl)acrylamide], at most 0.1 µM; as for `C=CC(=O)Nc1ccc2c(N3CC[C@@H](Nc4ncc5sccc5n4)C3)ncnc2c1` [Example 11, (R)-N-(4-(3-(thieno [3,2-d]pyrimidin-2-ylamino)pyrrolidin-1-yl)quinazolin-7-yl)acrylamide], at most 0.1 µM.

The next assay concerns the target T2, CDK12 wt/CycK (Homo sapiens, UniProt Q9NYV4).
T2 construct: either as full-length or enzymatically active fragments
In words: Radiometric protein kinase assay (33PanQinase), assay condition 2, thiol containing conditions. It is filed as biochemical. The conditions noted are these: thiol containing conditions (1.2 mM DTT), ATP 0.3 μM. As for the experimental part: Example 1—Assay condition 2 (thiol containing conditions)
Objective: The IC50 profile of test compounds was determined using protein kinases. IC50 values were measured by testing 10 concentrations (1×10^−04M, 3×10^−05M, 1×10^−05M, 3×10^−06M, 1×10^−06M, 3×10^−07M, 1×10^−07M, 3×10^−08M, 1×10^−08M, and 3×10^−09M) of each compound in singlicate.
Test compounds: The compounds were provided as pre-weighed powders in vials. The compounds were dissolved to 1×10^−02M by adding DMSO. 100 μl of each of the resulting stock solutions were transferred into column 2 of four 96 well “master plates”
Prior to testing, the 1×10^−02M stock solutions in column 2 of the master plates were subjected to a serial, semi-logarithmic dilution using 100% DMSO as a solvent. […] Column 1 and 7 were filled with 100% DMSO as controls. Subsequently, 2×10 μl from each well of the serial diluted copy plates were aliquoted with a 96 channel pipettor into two identical sets of “compound dilution plates”.
In the process, 90 μl H2O were added to each well of a set of compound dilution plates. To minimize potential precipitation, the H2O was added to each plate only a few minutes before the transfer of the compound solutions into the assay plates. Each plate was shaken thoroughly, resulting in a “compound dilution plate/ 10% DMSO”.
For the assays, 5 μl solution from each well of the compound dilution plates/10% DMSO were transferred into the assay plates. The final volume of the assay was 50 μl. All compounds were tested at 10 final assay concentrations in the range from 1×10^−04M to 3×10^−09M, in singlicate. The final DMSO concentration in the reaction cocktails was 1% in all cases.
Recombinant protein kinases: All protein kinases were expressed in Sf9 insect cells or in E.coli as recombinant GST-fusion proteins or His-tagged proteins, either as full-length or enzymatically active fragments. All kinases were produced from human cDNAs and purified by either GSH-affinity chromatography or immobilized metal. Affinity tags were removed from a number of kinases during purification. The purity of the protein kinases was examined by SDS-PAGE/Coomassie staining, the identity was checked by mass spectroscopy.
Protein kinase assay: A radiometric protein kinase assay (^33PanQinase® Activity Assay) was used for measuring the kinase activity. All kinase assays were performed in 96-well FlashPlates™ from PerkinElmer (Boston, MA, USA) in a 50 μl reaction volume. The reaction cocktail was pipetted in four steps in the following order: • 20 μl of assay buffer (standard buffer) • 5μl of ATP solution (in H2O) • 5μl of test compound (in 10% DMSO) • 20 μl enzyme/substrate mix
The assay for all protein kinases contained 70 mM HEPES-NaOH pH 7.5, 3 mM MgCl2, 3 mM MnCl2, 3 μM Na-orthovanadate, 1.2 mM DTT, 50 μg/ml PEG20000, ATP (variable concentrations, corresponding to the apparent ATP-K. of the respective kinase), [γ-^33P]-ATP (approx. 9×10^05cpm per well), protein kinase, and substrate.
The following amounts of enzyme and substrate were used per well:
The reaction cocktails were incubated at 30° C. for 60 minutes. The reaction was stopped with 50 μl of 2% (v/v) H3PO4, plates were aspirated and washed two times with 200 μl 0.9% (w/v) NaCl. Incorporation of ^33Pi was determined with a microplate scintillation counter (Microbeta, Wallac). All assays were performed with a BeckmanCoulter/SAGIANTM Core System.
Evaluation of raw data: The median value of the counts in column 1 (n=8) of each assay plate was defined as “low control”. This value reflects unspecific binding of radioactivity to the plate in the absence of a protein kinase but in the presence of the substrate. The median value of the counts in column 7 of each assay plate (n=8) was taken as the “high control”, i.e. full activity in the absence of any inhibitor. The difference between high and low control was taken as 100% activity. […]
On to `C=CC(=O)N(C)c1ccc2c(N3CC[C@@H](Nc4ncc(Br)cn4)C3)nc(C)nc2c1` [Example 40, (R)—N-(4-(3-((5-bromopyrimidin-2-yl)amino)pyrrolidin-1-yl)-2-methylquinazolin-7-yl)-N-methylacrylamide], for which the 50% inhibitory concentration (IC50) is at most 0.1 µM. On the same count and under the same terms, as for `Cc1nc(N2CC[C@@H](Nc3ncc(Cl)c(-c4cnn5ccccc45)n3)C2)c2ccc(NC(=O)/C=C/CN(C)C)cc2n1` [Example 35, (R,E)—N-(4-(3-((5-chloro-4-(pyrazolo[1,5-a]pyridin-3-yl)pyrimidin-2-yl)amino)pyrrolidin-1-yl)-2-methylquinazolin-7-yl)-4-(dimethylamino)but-2-enamide], the figure is at most 0.1 µM.
